Results from ChEMBL document CHEMBL1154382, “Preliminary SAR analysis of novel antiproliferative N(6),5'-bis-ureidoadenosine derivatives” (2009).
Active and inactive are the calls of the source.

How the values were obtained:
Format in all cases: functional
[1] = test system: CCRF-CEM; test: Antiproliferative activity against human CCRF-CEM cells at 10 uM assessed as cell growth inhibition relative to control
[2] = test system: HL-60(TB); test: Antiproliferative activity against human HL-60(TB) cells at 10 uM assessed as cell growth inhibition relative to control
[3] = test system: K562; test: Antiproliferative activity against human K562 cells at 10 uM assessed as cell growth inhibition relative to control
[4] = test system: MOLT-4; test: Antiproliferative activity against human MOLT4 cells at 10 uM assessed as cell growth inhibition relative to control
[5] = test system: RPMI8266; test: Antiproliferative activity against human […] cells at 10 uM assessed as cell growth inhibition relative to control
[6] = test system: A549; test: Antiproliferative activity against human A549 cells at 10 uM assessed as cell growth inhibition relative to control
[7] = test system: EKVX; test: Antiproliferative activity against human EKVX cells at 10 uM assessed as cell growth inhibition relative to control
[8] = test system: PC-3; test: Antiproliferative activity against human PC3 cells at 10 uM assessed as cell growth inhibition relative to control
[9] = test system: HOP-62; test: Antiproliferative activity against human HOP62 cells at 10 uM assessed as cell growth inhibition relative to control
[10] = test system: HOP-92; test: Antiproliferative activity against human HOP92 cells at 10 uM assessed as cell growth inhibition relative to control
[11] = test system: NCI-H226; test: Antiproliferative activity against human NCI-H226 cells at 10 uM assessed as cell growth inhibition relative to control
[12] = test system: NCI-H23; test: Antiproliferative activity against human NCI-H23 cells at 10 uM assessed as cell growth inhibition relative to control
[13] = test system: NCI-H322M; test: Antiproliferative activity against human NCI-H322M cells at 10 uM assessed as cell growth inhibition relative to control
[14] = test system: NCI-H460; test: Antiproliferative activity against human NCI-H460 cells at 10 uM assessed as cell growth inhibition relative to control
[15] = test system: NCI-H522; test: Antiproliferative activity against human NCI-H522 cells at 10 uM assessed as cell growth inhibition relative to control
[16] = test system: COLO 205; test: Antiproliferative activity against human COLO205 cells at 10 uM assessed as cell growth inhibition relative to control
[17] = test system: HCC 2998; test: Antiproliferative activity against human HCC2998 cells at 10 uM assessed as cell growth inhibition relative to control
[18] = test system: HCT-116; test: Antiproliferative activity against human HCT116 cells at 10 uM assessed as cell growth inhibition relative to control
[19] = test system: HCT-15; test: Antiproliferative activity against human HCT15 cells at 10 uM assessed as cell growth inhibition relative to control
[20] = test system: HT-29; test: Antiproliferative activity against human HT-29 cells at 10 uM assessed as cell growth inhibition relative to control
[21] = test system: KM12; test: Antiproliferative activity against human KM12 cells at 10 uM assessed as cell growth inhibition relative to control
[22] = test system: SW-620; test: Antiproliferative activity against human SW620 cells at 10 uM assessed as cell growth inhibition relative to control
[23] = test system: LOX IMVI; test: Antiproliferative activity against human LOXIMVI cells at 10 uM assessed as cell growth inhibition relative to control
[24] = test system: Malme-3M; test: Antiproliferative activity against human MALME-3M cells at 10 uM assessed as cell growth inhibition relative to control
[25] = test system: M14; test: Antiproliferative activity against human M14 cells at 10 uM assessed as cell growth inhibition relative to control
[26] = test system: SK-MEL-2; test: Antiproliferative activity against human SK-MEL-2 cells at 10 uM assessed as cell growth inhibition relative to control
[27] = test system: SK-MEL-28; test: Antiproliferative activity against human SK-MEL-28 cells at 10 uM assessed as cell growth inhibition relative to control
[28] = test system: SK-MEL-5; test: Antiproliferative activity against human SK-MEL-5 cells at 10 uM assessed as cell growth inhibition relative to control
[29] = test system: UACC-257; test: Antiproliferative activity against human UACC257 cells at 10 uM assessed as cell growth inhibition relative to control
[30] = test system: UACC-62; test: Antiproliferative activity against human UACC62 cells at 10 uM assessed as cell growth inhibition relative to control
[31] = test system: SF-268; test: Antiproliferative activity against human SF268 cells at 10 uM assessed as cell growth inhibition relative to control
[32] = test system: SF-295; test: Antiproliferative activity against human SF295 cells at 10 uM assessed as cell growth inhibition relative to control
[33] = test system: SF-539; test: Antiproliferative activity against human SF539 cells at 10 uM assessed as cell growth inhibition relative to control
[34] = test system: SNB-19; test: Antiproliferative activity against human SNB19 cells at 10 uM assessed as cell growth inhibition relative to control
[35] = test system: SNB-75; test: Antiproliferative activity against human SNB75 cells at 10 uM assessed as cell growth inhibition relative to control
[36] = test system: U-251; test: Antiproliferative activity against human U251 cells at 10 uM assessed as cell growth inhibition relative to control
[37] = test system: IGROV-1; test: Antiproliferative activity against human IGROV1 cells at 10 uM assessed as cell growth inhibition relative to control
[38] = test system: OVCAR-3; test: Antiproliferative activity against human OVCAR-3 cells at 10 uM assessed as cell growth inhibition relative to control
[39] = test system: OVCAR-4; test: Antiproliferative activity against human OVCAR4 cells at 10 uM assessed as cell growth inhibition relative to control
[40] = test system: OVCAR-5; test: Antiproliferative activity against human OVCAR5 cells at 10 uM assessed as cell growth inhibition relative to control
[41] = test system: OVCAR-8; test: Antiproliferative activity against human OVCAR8 cells at 10 uM assessed as cell growth inhibition relative to control
[42] = test system: SK-OV-3; test: Antiproliferative activity against human SKOV3 cells at 10 uM assessed as cell growth inhibition relative to control
[43] = test system: 786-0; test: Antiproliferative activity against human 786-0 cells at 10 uM assessed as cell growth inhibition relative to control
[44] = test system: A498; test: Antiproliferative activity against human A498 cells at 10 uM assessed as cell growth inhibition relative to control
[45] = test system: ACHN; test: Antiproliferative activity against human ACHN cells at 10 uM assessed as cell growth inhibition relative to control
[46] = test system: CAKI-1; test: Antiproliferative activity against human Caki1 cells at 10 uM assessed as cell growth inhibition relative to control
[47] = test system: RXF 393; test: Antiproliferative activity against human RXF393 cells at 10 uM assessed as cell growth inhibition relative to control
[48] = test system: SN12C; test: Antiproliferative activity against human SN12C cells at 10 uM assessed as cell growth inhibition relative to control
[49] = test system: TK-10; test: Antiproliferative activity against human TK10 cells at 10 uM assessed as cell growth inhibition relative to control
[50] = test system: UO-31; test: Antiproliferative activity against human UO31 cells at 10 uM assessed as cell growth inhibition relative to control
[51] = test system: BT-549; test: Antiproliferative activity against human BT549 cells at 10 uM assessed as cell growth inhibition relative to control
[52] = test system: Hs-578T; test: Antiproliferative activity against human Hs 578T cells at 10 uM assessed as cell growth inhibition relative to control
[53] = test system: MCF7; test: Antiproliferative activity against human MCF7 cells at 10 uM assessed as cell growth inhibition relative to control
[54] = test system: MDA-MB-231; test: Antiproliferative activity against human MDA-MB-231 cells at 10 uM assessed as cell growth inhibition relative to control
[55] = test system: MDA-MB-468; test: Antiproliferative activity against human MDA-MB-468 cells at 10 uM assessed as cell growth inhibition relative to control
[56] = test system: T47D; test: Antiproliferative activity against human T47D cells at 10 uM assessed as cell growth inhibition relative to control
[57] = test system: DU-145; test: Antiproliferative activity against human DU145 cells at 10 uM assessed as cell growth inhibition relative to control

Measured: growth inhibition (GI)

CNC(=O)NC[C@H]1O[C@@H](n2cnc3c(NC(=O)Nc4ccccc4)ncnc32)[C@@H]2OC(=O)C[C@@H]21
inactive: [1] | [2] | [3] | [4] | [5] | [6] | [7] | [8] | [9] | [10] | [11] | [12] | [13] | [14] | [15] | [16] | [17] | [18] | [19] | [20] | [21] | [22] | [23] | [24] | [25] | [26] | [27] | [28] | [29] | [30] | [31] | [32] | [33] | [34] | [35] | [36] | [37] | [38] | [39] | [40] | [41] | [42] | [43] | [44] | [45] | [46] | [47] | [48] | [49] | [50] | [51] | [52] | [53] | [54] | [55] | [56] | [57]
